Data taken from ChEMBL document CHEMBL2202996, “Synthesis, evaluation, and radiolabeling of new potent positive allosteric modulators of the metabotropic glutamate receptor 2 as potential tracers for positron emission tomography imaging” (J Med Chem, 2012).
pEC50, pIC50, pKi: −log10 of the molar value.

Key:
[1] = target: T1, Metabotropic glutamate receptor 2 (Homo sapiens, UniProt Q14416); assay: Agonist activity at human mGLuR2 expressed in CHO cell membrane assessed as […] after 30 mins by scintillation counting; format: functional, cell membranes; settings: read-out: EC50
Target sequence in this assay (Q14416 whole entry): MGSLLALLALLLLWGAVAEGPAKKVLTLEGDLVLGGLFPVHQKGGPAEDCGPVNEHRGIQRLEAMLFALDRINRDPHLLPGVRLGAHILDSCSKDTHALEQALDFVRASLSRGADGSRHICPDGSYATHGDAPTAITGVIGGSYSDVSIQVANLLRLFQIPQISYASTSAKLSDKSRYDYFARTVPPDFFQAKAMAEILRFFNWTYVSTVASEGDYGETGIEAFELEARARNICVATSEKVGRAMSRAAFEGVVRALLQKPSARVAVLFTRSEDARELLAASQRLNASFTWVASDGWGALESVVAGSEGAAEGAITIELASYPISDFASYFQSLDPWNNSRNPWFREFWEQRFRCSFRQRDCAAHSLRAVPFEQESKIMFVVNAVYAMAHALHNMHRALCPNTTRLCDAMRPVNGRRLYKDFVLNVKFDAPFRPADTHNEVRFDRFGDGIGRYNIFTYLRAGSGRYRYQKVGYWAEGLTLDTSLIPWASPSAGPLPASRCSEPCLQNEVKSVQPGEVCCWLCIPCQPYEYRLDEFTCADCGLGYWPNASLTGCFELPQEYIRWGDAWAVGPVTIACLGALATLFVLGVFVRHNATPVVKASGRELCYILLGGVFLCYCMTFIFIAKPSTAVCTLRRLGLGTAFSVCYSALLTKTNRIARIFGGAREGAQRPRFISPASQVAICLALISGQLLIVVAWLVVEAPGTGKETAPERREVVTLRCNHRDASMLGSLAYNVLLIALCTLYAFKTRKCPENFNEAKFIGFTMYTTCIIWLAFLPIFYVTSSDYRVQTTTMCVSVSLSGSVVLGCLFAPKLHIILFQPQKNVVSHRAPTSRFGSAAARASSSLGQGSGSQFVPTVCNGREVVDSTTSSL

[2] = target: T1, Metabotropic glutamate receptor 2; assay: Agonist activity at human mGLuR2 expressed in CHO cell membrane assessed as […] after 30 mins by scintillation counting relative to control; format: functional, cell membranes
Target sequence in this assay (Q14416 19-872 limits assumed): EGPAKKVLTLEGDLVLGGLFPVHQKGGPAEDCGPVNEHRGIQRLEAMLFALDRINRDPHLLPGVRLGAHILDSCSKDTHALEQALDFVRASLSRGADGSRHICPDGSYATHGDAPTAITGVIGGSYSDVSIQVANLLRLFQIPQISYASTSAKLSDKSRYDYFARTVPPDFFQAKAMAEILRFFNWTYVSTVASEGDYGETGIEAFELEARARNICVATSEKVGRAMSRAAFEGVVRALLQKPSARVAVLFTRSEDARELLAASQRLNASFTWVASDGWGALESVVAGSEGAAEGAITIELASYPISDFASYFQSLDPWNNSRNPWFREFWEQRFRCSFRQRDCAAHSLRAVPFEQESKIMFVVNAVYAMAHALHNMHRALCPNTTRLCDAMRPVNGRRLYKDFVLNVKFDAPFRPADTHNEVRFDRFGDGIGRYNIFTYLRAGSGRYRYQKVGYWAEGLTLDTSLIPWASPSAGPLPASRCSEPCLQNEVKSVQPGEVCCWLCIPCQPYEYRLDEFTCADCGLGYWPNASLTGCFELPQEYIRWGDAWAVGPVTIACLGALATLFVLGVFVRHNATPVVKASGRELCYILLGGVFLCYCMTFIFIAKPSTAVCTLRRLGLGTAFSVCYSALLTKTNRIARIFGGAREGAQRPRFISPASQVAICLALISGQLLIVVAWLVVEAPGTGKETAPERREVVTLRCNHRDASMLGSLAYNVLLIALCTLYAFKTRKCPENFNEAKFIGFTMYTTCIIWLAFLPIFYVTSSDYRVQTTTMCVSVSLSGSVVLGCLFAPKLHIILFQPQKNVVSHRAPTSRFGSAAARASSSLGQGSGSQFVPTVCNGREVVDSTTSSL

[3] = test system: Liver microsomes; assay: Drug metabolism in human liver microsomes assessed as M+O oxidative metabolite; format: ADME, Microsome
[4] = test system: Liver microsomes; assay: Drug metabolism in human liver microsomes assessed as O-methylated compound derivative; format: ADME, Microsome
[5] = Fraction unbound in rat plasma; format: ADME, cell-free
[6] = test system: Liver microsomes; assay: Drug metabolism in rat liver microsomes assessed as O-methylated compound derivative; format: ADME, Microsome
[7] = test system: Liver microsomes; assay: Drug metabolism in rat liver microsomes assessed as M+O oxidative metabolite; format: ADME, Microsome
[8] = Fraction unbound in human plasma; format: ADME, cell-free
[9] = test system: HEK293; assay: Selectivity ratio for human mGluR7 expressed in HEK293 cells to human mGluR2 expressed in CHO cell membranes; format: cell-based
[10] = test system: HEK293; assay: Selectivity ratio for human mGluR5 expressed in HEK293 cells to human mGluR2 expressed in CHO cell membranes; format: cell-based
[11] = test system: HEK293; assay: Selectivity ratio for human mGluR1 expressed in HEK293 cells to human mGluR2 expressed in CHO cell membranes; format: cell-based
[12] = test system: HEK293; assay: Selectivity ratio for human mGluR8 expressed in HEK293 cells to human mGluR2 expressed in CHO cell membranes; format: cell-based
[13] = test system: HEK293; assay: Selectivity ratio for human mGluR3 expressed in HEK293 cells to human mGluR2 expressed in CHO cell membranes; format: cell-based
[14] = test system: CHO; assay: Selectivity ratio for rat mGluR6 to human mGluR2 expressed in CHO cell membranes; format: cell-based
[15] = test system: CHO; assay: Selectivity ratio for human mGluR4 to human mGluR2 expressed in CHO cell membranes; format: cell-based
[16] = target: T1, Metabotropic glutamate receptor 2; assay: Displacement of [3H]JNJ-40068782 from human mGLuR2 expressed in CHO cell membrane after 60 mins by liquid scintillation counting; format: cell membranes
Target sequence in this assay (Q14416 whole entry): as the sequence (Q14416 whole entry) above

[17] = target: T2, Sodium-dependent dopamine transporter (Homo sapiens, UniProt Q01959); assay: Binding affinity to DAT at 10 uM by CEREP assay
[18] = target: T2, Sodium-dependent dopamine transporter; assay: Binding affinity to DAT
[19] = target: T3, D(1A) dopamine receptor (Homo sapiens, UniProt P21728); assay: Binding affinity to dopamine D1 receptor
[20] = target: T3, D(1A) dopamine receptor; assay: Binding affinity to dopamine D1 receptor at 10 uM by CEREP assay
[21] = test system: Rattus norvegicus; assay: Biodistribution in Wistar rat urinary system at 22 Mbq, iv measured at 60 mins post administration by gamma counting; format: ADME, organism-based, Urine; settings: in vivo, 1 h
[22] = test system: Cortex; assay: Ratio of SUV in cortex in iv dosed Wistar at 2 mins post administration by gamma counting to SUV in cortex in iv dosed Wistar at 30 mins post administration by gamma counting; format: ADME, organism-based; settings: rat, in vivo
[23] = test system: Brain; assay: Ratio of SUV in total brain in iv dosed Wistar at 2 mins post administration by gamma counting to SUV in total brain in iv dosed Wistar at 30 mins post administration by gamma counting; format: ADME, organism-based; settings: rat, in vivo
[24] = test system: Striatum; assay: Ratio of SUV in striatum in iv dosed Wistar at 2 mins post administration by gamma counting to SUV in striatum in iv dosed Wistar at 30 mins post administration by gamma counting; format: ADME, organism-based; settings: rat, in vivo
[25] = test system: Liver; assay: Biodistribution in Wistar rat liver at 22 Mbq, iv measured at 60 mins post administration by gamma counting; format: ADME, organism-based; settings: in vivo, 1 h
[26] = test system: Brain; assay: Biodistribution in Wistar rat brain at 22 Mbq, iv measured at 2 mins post administration by gamma counting; format: ADME, organism-based; settings: in vivo
[27] = test system: Cerebrum; assay: Ratio of SUV in cerebrum in iv dosed Wistar at 2 mins post administration by gamma counting to SUV in cerebrum in iv dosed Wistar at 30 mins post administration by gamma counting; format: ADME, organism-based; settings: rat, in vivo
[28] = test system: Cerebrum; assay: Biodistribution in Wistar rat cerebrum at 22 Mbq, iv measured at 2 mins post administration by gamma counting; format: ADME, organism-based; settings: in vivo
[29] = test system: Intestine; assay: Biodistribution in Wistar rat intestine at 22 Mbq, iv measured at 60 mins post administration by gamma counting; format: ADME, organism-based; settings: in vivo, 1 h
[30] = test system: Hippocampus; assay: Ratio of SUV in hippocampus in iv dosed Wistar at 2 mins post administration by gamma counting to SUV in hippocampus in iv dosed Wistar at 30 mins post administration by gamma counting; format: ADME, organism-based; settings: rat, in vivo
[31] = test system: Cerebellum; assay: Biodistribution in Wistar rat cerebellum at 22 Mbq, iv measured at 2 mins post administration by gamma counting; format: ADME, organism-based; settings: in vivo
[32] = test system: Cerebellum; assay: Ratio of SUV in cerebellum in iv dosed Wistar at 2 mins post administration by gamma counting to SUV in cerebellum in iv dosed Wistar at 30 mins post administration by gamma counting; format: ADME, organism-based; settings: rat, in vivo

T3 sequence (P21728 whole entry): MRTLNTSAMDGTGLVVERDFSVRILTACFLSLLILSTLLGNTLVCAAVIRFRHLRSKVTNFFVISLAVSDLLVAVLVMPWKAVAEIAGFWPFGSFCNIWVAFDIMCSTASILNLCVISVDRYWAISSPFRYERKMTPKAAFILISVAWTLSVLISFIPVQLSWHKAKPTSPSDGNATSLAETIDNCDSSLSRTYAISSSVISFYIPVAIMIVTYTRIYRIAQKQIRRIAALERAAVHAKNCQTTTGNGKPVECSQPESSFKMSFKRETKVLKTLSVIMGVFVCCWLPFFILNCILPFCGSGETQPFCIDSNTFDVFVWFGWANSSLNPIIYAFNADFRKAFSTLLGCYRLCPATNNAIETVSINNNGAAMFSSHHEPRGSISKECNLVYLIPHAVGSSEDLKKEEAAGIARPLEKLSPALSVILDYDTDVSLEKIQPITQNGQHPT
T2 sequence (Q01959 whole entry): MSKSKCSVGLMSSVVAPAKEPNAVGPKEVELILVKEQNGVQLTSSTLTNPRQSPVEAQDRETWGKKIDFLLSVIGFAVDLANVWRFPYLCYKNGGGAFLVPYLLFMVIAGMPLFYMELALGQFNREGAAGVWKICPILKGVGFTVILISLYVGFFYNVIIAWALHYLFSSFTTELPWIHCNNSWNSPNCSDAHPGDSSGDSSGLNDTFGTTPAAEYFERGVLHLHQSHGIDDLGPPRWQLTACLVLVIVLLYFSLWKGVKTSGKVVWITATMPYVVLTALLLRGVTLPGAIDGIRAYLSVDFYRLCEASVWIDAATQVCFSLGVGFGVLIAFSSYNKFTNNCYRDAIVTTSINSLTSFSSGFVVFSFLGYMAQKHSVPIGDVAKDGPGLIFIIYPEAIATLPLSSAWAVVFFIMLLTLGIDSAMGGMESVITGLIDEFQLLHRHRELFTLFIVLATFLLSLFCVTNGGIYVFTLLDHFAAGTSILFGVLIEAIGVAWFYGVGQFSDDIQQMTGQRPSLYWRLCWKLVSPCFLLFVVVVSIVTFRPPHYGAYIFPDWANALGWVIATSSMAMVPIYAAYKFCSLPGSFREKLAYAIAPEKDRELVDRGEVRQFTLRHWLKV

SMILES | pEC50 [1] | Emax [2] | Drug metabolism [3] | Drug metabolism [4] | fraction unbound [5] | Drug metabolism [6] | Drug metabolism [7] | fraction unbound [8] | Selectivity ratio [9] | Selectivity ratio [10] | Selectivity ratio [11] | Selectivity ratio [12] | Selectivity ratio [13] | Selectivity ratio [14] | Selectivity ratio [15] | pIC50 [16] | other results
COc1c(C2CCN(c3ccn4c(CC5CC5)nnc4c3Cl)CC2)ccc(F)c1F | 7.59 | 342% | Active | Active | < 0.01 | Active | Active | < 0.01 |  |  |  |  |  |  |  |  | 
COc1cccc(F)c1C1CCN(c2ccn3c(CC4CC4)nnc3c2Cl)CC1 |  | 304% | Active | Active | < 0.01 | Active | Active | < 0.01 | > 350 | > 350 | > 350 | > 350 | > 350 | > 350 | > 350 | 7.95 | 
COc1cc(F)cc(F)c1C1CCN(c2ccn3c(CC4CC4)nnc3c2Cl)CC1 |  | 256% | Active | Active | < 0.01 | Active | Active | < 0.01 | > 350 | > 350 | > 350 | > 350 | > 350 | > 350 | > 350 | 8.25 | 
COc1c(F)cccc1C1CCN(c2ccn3c(CC(F)(F)F)nnc3c2C#N)CC1 | 7.51 | 306% | Active | Active | 0.04 | Active | Active | 0.047 |  |  |  |  |  |  |  |  | 
COc1c(F)ccc(F)c1C1CCN(c2ccn3c(CC4CC4)nnc3c2Cl)CC1 | 8.12 | 282% | Active | Active | < 0.01 | Active | Active | < 0.01 | > 350 | > 350 | > 350 | > 350 | > 350 | > 350 | > 350 | 8.03 | Activity [17]: 52%; pKi [18]: < 5.07; pKi [19]: ≤ 5.21; Activity [20]: 76%
[11CH3]Oc1cccc(F)c1C1CCN(c2ccn3c(CC4CC4)nnc3c2Cl)CC1 |  |  |  |  |  |  |  |  |  |  |  |  |  |  |  |  | Drug uptake [21]: Active; Ratio [22]: 0.71; Ratio [23]: 0.72; Ratio [24]: 0.59; Drug uptake [25]: Active; Drug uptake [26]: 0.65 %ID; Ratio [27]: 0.6; Drug uptake [28]: 0.45 %ID; Drug uptake [29]: Active; Ratio [30]: 0.63; Drug uptake [31]: 0.17 %ID; Ratio [32]: 0.71
COc1ccccc1C1CCN(c2ccn3c(CC4CC4)nnc3c2Cl)CC1 |  | 345% | Active | Active | < 0.01 | Active | Active | < 0.01 |  |  |  |  |  |  |  |  | 
COc1c(F)ccc(F)c1C1CCN(c2ccn3c(CC4CC4)nnc3c2C(F)(F)F)CC1 |  | 421% | Active | Active | < 0.01 | Active | Active | < 0.01 | > 350 | > 350 | > 350 | > 350 | > 350 | > 350 | > 350 |  | 
COc1ccc(F)cc1C1CCN(c2ccn3c(CC(F)(F)F)nnc3c2Cl)CC1 |  | 340% | Active | Active | < 0.01 | Active | Active | < 0.01 |  |  |  |  |  |  |  |  | 
